Source: ChEMBL document CHEMBL1133427, “Membrane-permeant, bioactivatable analogues of cGMP as inducers of cell death in IPC-81 leukemia cells” (Bioorg Med Chem Lett, 2000)
Active and inactive are the calls of the source. The rule behind the calls is not given here.

Columns and labels:
Rattus norvegicus = species: Rattus norvegicus; assay: Compound was tested as initiator of cell death in IPC-81 leukemia cells; Inactive; assay type: functional, cell-based
[1] = Effective dose of compound required to induce death in IPC-81 leukemia cells; Range 40-80; assay type: functional, cell-based, Rattus norvegicus

Compound | Activity (Rattus norvegicus) | EC50 [1] [µM]
CC(=O)OCOP1(=O)OC[C@@H]2O[C@@H](n3cnc4c(=O)n(C)c(N)nc43)[C@H](O)[C@@H]2O1 (stereo partly specified) | inactive | 80
CC(=O)OCOP1(=O)OC[C@@H]2O[C@@H](n3c(Br)nc4c(O)nc(N)nc43)[C@H](O)[C@@H]2O1 (stereo partly specified) | inactive | 80
CC(=O)OCOP1(=O)OCC2OC(n3cnc4c(=O)n(C)c(N)nc43)CC(O)C2O1 (stereo unspecified) | inactive | 
CC(=O)OCOP1(=O)OC[C@@H]2O[C@@H](N3C(Sc4ccc(Cl)cc4)=NC4C(=O)N=C(N)N=C43)[C@H](O)[C@@H]2O1 (stereo partly specified) | inactive | 
